Literature values, collected in US20240252632A1, “METHODS OF TREATING LUNG CANCER WITH A PD-1 AXIS BINDING ANTAGONIST, AN ANTIMETABOLITE, AND A PLATINUM AGENT” (Genentech, Inc., priority 2018, published 2024).

## [NH3+][Pt-2]1([NH3+])[O]C(=O)C2(CCC2)C(=O)[O]1 [Carboplatin, platinum, diammine[1,1-cyclobutanedicarboxylato(2-)-O,O′]—, (SP-4-2)]
ethanol, acetone, dimethylacetamide
  solubility in ethanol, acetone, and dimethylacetamide: virtually insoluble
water
  solubility in water: approximately 14 mg/mL
